The values below come from patent publication US9284283B2, “Macrocyclic compounds for modulating IL-17” (ENSEMBLE THERAPEUTICS CORPORATION, priority 2012, dated 2016).

Test [1] has as its target T1, IL17A (Homo sapiens, UniProt Q16552).
T1 sequence (Q16552 24-155): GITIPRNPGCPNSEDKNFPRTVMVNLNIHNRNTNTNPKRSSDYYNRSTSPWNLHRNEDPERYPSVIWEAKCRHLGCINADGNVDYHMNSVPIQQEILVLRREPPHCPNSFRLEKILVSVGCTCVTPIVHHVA
The test is described as follows: Surface Plasmon Resonance (SPR) analysis of compound interactions with IL17A. The note with it: SPR binding to IL17A. As for the experimental part: SPR analysis was carried out with a GE Healthcare (Piscataway, N.J.) Biacore X100 system. Typically, the chip (NTA Biacore Biosensor chip; GE Healthcare BR-1000-34) was first conditioned by injection of 0.35 M EDTA, which also served to remove any immobilized proteins from previous runs. Before immobilization of the recombinant 6-His-tagged IL17, the chip was washed with 0.5 mM nickel chloride in NTA buffer (10 mM HEPES buffer, 0.15 M sodium chloride, 10 μM ethylene diamine tetraacetic acid, 0.005% v/v surfactant P20 (GE Healthcare BR-1000-54)) to form a nickel chelate on the chip. IL17 protein was immobilized onto a NTA chip through its 6-His tag. IL17A was typically injected at 0.25 μM for 60-120 seconds, followed by a stabilization step washing with NTA+0.5% DMSO for 120 seconds or longer.
Five 2-fold or 3-fold serial dilutions of test compound were injected serially onto the chip. All steps were conducted using NTA buffer containing 0.5% v/v dimethylsulfoxide (DMSO). Compounds were diluted from stock solutions of 10 mM concentration in 100% DMSO with NTA buffer to obtain 50 μM solutions in NTA+0.5% DMSO. Subsequent 2× or 3× dilutions were made in NTA+0.5% DMSO. Compound was generally injected for 180 seconds followed by washing the chip in buffer alone for 120 seconds. The rate of refractive index change (RU units/time) and the maximum extend of RU change was measured during the “on” phase of analyte injection, followed by measuring the rate during the “off” phase.
Kinetic parameter fits were conducted using the Biacore SPR Evaluation Program (GE Healthcare) for 1:1 molecular binding fits, after subtracting the baseline average of 2 or more runs in which no analyte was injected. This program then reports the best fit average for the “on” rate (Ka), the “off” rate (Kd) and the dissociation constant (KD) (Chaiken, I et al., Anal Biochem 201, 197-210 (1992)). A separate program in the Biacore SPR Evaluation Program then calculates the best fit for Kd based upon the extent of binding alone (RU units bound) at each concentration of analyte and reports the best fit Kd by best fit to a Lineweaver-Burke plot. Typically, the Kd value calculated through both means agreed within a factor of three.
The presence and activity of IL17 on the NTA chip was routinely confirmed three ways: • 1) An increase in response units (RU) upon immobilization confirms that the IL17 was immobilized on the chip; • 2) Anti-IL17 was also injected on the chip to confirm the presence of IL17; and • 3) IL17R was injected onto the chip to confirm that the immobilized IL17 retained its binding activity for its receptor. Negative controls to access specificity for compound binding were conducted by immobilizing unrelated, but his-tagged, proteins (such as cyclophilin D) and conducting the same analysis as done with IL17A.
Background: Surface plasmon resonance follows binding to a sensor surface in real time, without labels.

Test [2] deals with T2, recombinant human IL17a (binding to its receptor IL17R) (Homo sapiens, UniProt Q16552).
T2 construct: purchased R&D Systems 317-ILB (IL17a); 177-IR (IL17R/Fc)
T2 sequence (Q16552 20-155 limits assumed): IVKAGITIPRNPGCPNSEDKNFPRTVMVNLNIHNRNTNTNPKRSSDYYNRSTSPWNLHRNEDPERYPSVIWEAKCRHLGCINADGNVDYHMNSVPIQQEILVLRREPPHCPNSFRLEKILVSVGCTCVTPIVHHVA
Description: IL-17 competition ELISA I (IL17a coated, IL17R/Fc binding). The gist of the method:
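Plates coated with 20 nM recombinant human IL17a received compound dilutions and 12 nM IL17R/Fc (final) for 30 min at room temperature. Bound receptor was detected with HRP anti-human Fc and TMB, read at 450 nm. IC50 came from a 4-parameter logistic fit between no-competitor and blank controls.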

For orientation: Kd means the constant that tells how readily two partners part at equilibrium. A low value points to a tighter complex. Usually IC50 stands for the point on the concentration scale where inhibition reaches its midpoint. Take `O=C1CCCNC(=O)[C@@H](Cc2ccc(NC(=O)[C@H](Cc3ccccc3Cl)NC(=O)Cc3ccccc3)cc2)NC(=O)CC2(CCCC2)CC(=O)NCCCN1` [Compound 158]: the Kd in test [1] was below 100 nM. Also, in test [2], the IC50 is below 100 nM.

Consider `O=C1CCNC(=O)[C@@H](Cc2ccc(NC(=O)[C@H](Cc3ccccc3Cl)NC(=O)Cc3ccccc3)cc2)NC(=O)CC2(CCCC2)CC(=O)NCCCCN1` [Compound 164], for which, in test [1], the dissociation constant (Kd) is below 100 nM. Besides, in test [2], the IC50 is below 100 nM.

In test [1], `O=C1CNC(=O)[C@@H](Cc2ccc(NC(=O)[C@H](Cc3ccc(O)cc3)NC(=O)Cc3ccccc3)cc2)NC(=O)CC2(CCCC2)CC(=O)NCCCCCN1` [Compound 183] registered a Kd of 100 to 1000 nM. Moreover, in test [2], the IC50 fell in the range of 1000 to 10000 nM.

`CN1CC(=O)NCCCCCNC(=O)CC2(CCCC2)CC(=O)N[C@H](Cc2ccc(NC(=O)[C@H](Cc3ccccc3Cl)NC(=O)Cc3ccccc3)cc2)C1=O` [Compound 188] displayed a Kd in test [1] of 100 to 1000 nM. Moreover, the IC50 in test [2] was 1000 to 10000 nM.

In test [1], `CN1CC(=O)NCCCCCNC(=O)CC2(CCCC2)CC(=O)N[C@H](Cc2ccc(NC(=O)[C@H](Cc3ccccc3Cl)NC(=O)Cc3ccc(O)cc3)cc2)C1=O` [Compound 193] registered a Kd below 100 nM. Further, the IC50 in test [2] was 100 to 1000 nM.

With `O=C1CNC(=O)[C@@H](Cc2ccc(NC(=O)[C@H](Cc3ccccc3Cl)NC(=O)c3cnccn3)cc2)NC(=O)CC2(CCCC2)CC(=O)NCCCCCN1` [Compound 200], the Kd in test [1] is 100 to 1000 nM. In addition, in test [2], the IC50 was in the range of 100 to 1000 nM.

Molecule `O=C1CNC(=O)[C@@H](Cc2ccc(NC(=O)[C@H](Cc3ccccc3Cl)NC(=O)Cc3ccncc3)cc2)NC(=O)CC2(CCCC2)CC(=O)NCCCCCN1` [Compound 202] came in with a Kd in test [1] below 100 nM. Moreover, the IC50 in test [2] is below 100 nM.

In test [1], `O=C1CNC(=O)[C@@H](Cc2ccc(NC(=O)[C@H](Cc3ccccc3Cl)NC(=O)c3ccccc3F)cc2)NC(=O)CC2(CCCC2)CC(=O)NCCCCCN1` [Compound 203] came in with a Kd below 100 nM. The half-inhibitory concentration (IC50) in test [2] was below 100 nM.

In test [1], `O=C1CNC(=O)[C@@H](Cc2ccc(NC(=O)[C@H](Cc3ccccc3Cl)NC(=O)c3ccccc3Cl)cc2)NC(=O)CC2(CCCC2)CC(=O)NCCCCCN1` [Compound 204] showed an equilibrium dissociation constant (Kd) below 100 nM. Moreover, the IC50 in test [2] lay in the range of 100 to 1000 nM.

`O=C1CNC(=O)[C@@H](Cc2ccc(NC(=O)[C@H](Cc3ccccc3Cl)NC(=O)c3ccc(Cl)cc3)cc2)NC(=O)CC2(CCCC2)CC(=O)NCCCCCN1` [Compound 205]: in test [1], the Kd was below 100 nM. In test [2], the IC50 was below 100 nM.

For `O=C1CNC(=O)[C@@H](Cc2ccc(NC(=O)[C@H](Cc3ccccc3Cl)NC(=O)C3CCCCC3)cc2)NC(=O)CC2(CCCC2)CC(=O)NCCCCCN1` [Compound 207], the Kd in test [1] was below 100 nM. Further, the concentration for half-maximal inhibition (IC50) in test [2] lay within 100 to 1000 nM.

On to `O=C1CNC(=O)[C@@H](Cc2ccc(NC(=O)[C@H](Cc3cccc(Cl)c3)NC(=O)Cc3ccccc3)cc2)NC(=O)CC2(CCCC2)CC(=O)OCCCCCN1` [Compound 212], for which the Kd in test [1] lay in the range of 100 to 1000 nM. The IC50 in test [2] lay within 100 to 1000 nM.

In test [1], `O=C1CNC(=O)[C@@H](Cc2ccc(NC(=O)[C@H](Cc3ccc(Cl)cc3)NC(=O)Cc3ccccc3)cc2)NC(=O)CC2(CCCC2)CC(=O)OCCCCCN1` [Compound 213] came in with a Kd of 100 to 1000 nM. The IC50 in test [2] is above 10000 nM.

For the molecule `O=C1CNC(=O)[C@@H](Cc2ccc(NC(=O)[C@H](Cc3ccccc3Cl)NC(=O)c3cccc(O)c3)cc2)NC(=O)CC2(CCCC2)CC(=O)NCCCCCN1` [Compound 214], the Kd in test [1] was below 100 nM. In addition, the 50% inhibitory concentration (IC50) in test [2] was below 100 nM.

The molecule `O=C1CCCC(=O)N[C@H](Cc2ccc(NC(=O)[C@H](Cc3ccccc3Cl)NC(=O)Cc3ccccc3)cc2)C(=O)NCC(=O)NCCCCCN1` [Compound 221] displayed a Kd in test [1] of 100 to 1000 nM. Further, in test [2], the IC50 fell in the range of 1000 to 10000 nM.

Molecule `CC1(C)CC(=O)NCCCCCNC(=O)CNC(=O)[C@@H](Cc2ccc(NC(=O)[C@H](Cc3ccccc3Cl)NC(=O)Cc3ccccc3)cc2)NC(=O)C1` [Compound 222] returned a Kd in test [1] below 100 nM. In addition, in test [2], the IC50 is below 100 nM.
